Molecular target: T1, Renin (Homo sapiens, UniProt P00797)
T1 sequence (P00797 whole entry): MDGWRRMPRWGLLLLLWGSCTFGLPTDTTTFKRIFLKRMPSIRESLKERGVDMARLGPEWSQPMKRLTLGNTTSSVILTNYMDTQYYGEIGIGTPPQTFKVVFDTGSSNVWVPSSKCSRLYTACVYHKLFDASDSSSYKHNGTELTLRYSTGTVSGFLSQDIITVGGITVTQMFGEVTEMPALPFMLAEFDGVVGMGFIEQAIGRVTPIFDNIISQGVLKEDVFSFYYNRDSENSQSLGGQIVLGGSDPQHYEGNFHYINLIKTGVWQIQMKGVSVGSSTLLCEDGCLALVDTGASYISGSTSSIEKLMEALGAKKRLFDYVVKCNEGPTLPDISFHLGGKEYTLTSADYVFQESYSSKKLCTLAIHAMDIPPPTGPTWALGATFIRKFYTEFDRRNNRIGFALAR
Assay: The compound was evaluated in vitro for inhibition of human plasma renin at pH 7.4.
Assay type: cell-free

Row | Structure (SMILES) | IC50
1 | CC(C)(C)OC(=O)N[C@@H](Cc1ccccc1)C(=O)N[C@H]1CNC(=O)CCCOC(=O)[C@H](O)[C@H](CC2CCCCC2)NC1=O | 9.2 µM
2 | CC(C)(C)OC(=O)N[C@@H](Cc1ccccc1)C(=O)N[C@H]1CCC(=O)NCCCOC(=O)[C@H](O)[C@H](CC2CCCCC2)NC1=O | 7 µM
3 | CC(C)(C)OC(=O)N[C@@H](Cc1ccccc1)C(=O)N[C@H]1CCC(=O)NCCC[C@@H](O)[C@H](O)[C@H](CC2CCCCC2)NC1=O | > 20 µM
4 | CC(C)(C)OC(=O)N[C@@H](Cc1ccccc1)C(=O)N[C@H]1CCC(=O)NCCCC2(OCCO2)[C@H](O)[C@H](CC2CCCCC2)NC1=O | > 20 µM
5 | CC(C)(C)OC(=O)N[C@@H](Cc1ccccc1)C(=O)N[C@H]1CCC(=O)NCCCC(=O)[C@H](O)[C@H](CC2CCCCC2)NC1=O | 14 µM
6 | CC(C)(C)OC(=O)N[C@@H](Cc1ccccc1)C(=O)N[C@H]1CCC(=O)NCCOC(=O)[C@H](O)[C@H](CC2CCCCC2)NC1=O | 0.61 µM
7 | CC(C)(C)OC(=O)N[C@@H](Cc1ccccc1)C(=O)N[C@H]1CNC(=O)CCCCOC(=O)[C@H](O)[C@H](CC2CCCCC2)NC1=O | 0.59 µM
8 | CC(C)(C)OC(=O)N[C@@H](Cc1ccccc1)C(=O)N[C@H]1CCC(=O)NCCC[C@H](O)[C@H](O)[C@H](CC2CCCCC2)NC1=O | 0.65 µM

From ChEMBL document CHEMBL1125196, “Design and synthesis of P2-P1'-linked macrocyclic human renin inhibitors” (J Med Chem, 1991)
